Experimental findings from patent US4431650A, “Esters of benzofuranyl acids” (Union Carbide Corporation, priority 1980, dated 1984) are described below.

≈ marks a conversion by molar mass, not a printed value.

Common to all, as to type: in vivo
The subject of series [1] is bean aphid (Aphis fabae Scop.). The series can be described thus: Bean Aphid Foliage Spray Test. Conditions: foliar, foliage spray on nasturtium plants, adults and nymphs, mortality after 24 hour holding period, read-out: LD50 Aphid. On the procedure: (§1) Suspensions of the test compounds were prepared by dissolving one gram of compound in 50 milliliters of acetone in which had been dissolved 0.1 gram (10 percent of the weight of compound) of an alkylphenoxy polyethoxyethanol surfactant, as an emulsifying or dispersing agent. The resulting solution was mixed into 150 milliliters of water to give roughly 200 milliliters of a suspension containing the compound in finely divided form. The thus-prepared stock suspension contained 0.5 percent by weight of compound. The concentrations in parts per million by weight employed in the tests described hereinbelow were obtained by appropriate dilutions of the stock suspension with water. The test procedures were as follows:
Adults and nymphal stages of the bean aphid (Aphis fabae Scop.) reared on potted dwarf nasturtium plants at 65°-70° F. and 50-70 percent relative humidity, constituted the test insects. For testing purposes, the number of aphids per pot was standardized to 100-150 by trimming plants containing excess aphids. […]
The potted plants (one pot per compound tested) infested with 100-150 aphids, were placed on a revolving turntable and sprayed with 100-110 milliliters of test compound formulation by use of a DeVilbiss spray gun set at 40 psig. air pressure. […] Percent mortality was recorded for various concentration levels. […]

Series [2] deals with two-spotted mite (Tetranychus urticae Koch). The experiment in a line: Mite Foliage Spray Test. Conditions: foliar, 144 h, foliage spray on bean plants, adults and nymphs, mortality count of motile forms after six days, read-out: LD50 Mite. On the procedure:
as §1
Adults and nymphal stage of the two-spotted mite (Tetranychus urticae Koch), reared on Tendergreen bean plants at 80±5 percent relative humidity, were the test organisms. Infested leaves from a stock culture were placed on the primary leaves of two bean plants six to eight inches in height, growing in a two-and-a-half inch clay pot. 150-200 Mites, a sufficient number for testing, transferred from the excised leaves to the fresh plants in a period of twenty four hours. Following the twenty four hour transfer period, the excised leaves were removed from the infested plants. […]

Series [3] has as its system southern armyworm (Spodoptera eridania, (Cram.)). The series can be described thus: Southern Armyworm Leaf Spray Bait Test. As to conditions: 72 h, larvae on sprayed bean leaves, held three days, read-out: LD50 SAW. The protocol: as §1
Larvae of the southern armyworm (Spodoptera eridania, (Cram.)), reared on Tendergreen bean plants at a temperature of 80°±5° F. and a relative humidity of 50± percent, constituted the test insects.
The test compounds were formulated by diluting the stock suspension with water to give a suspension containing 500 parts of test compound per million parts of final formulation. Potted Tendergreen bean plants of standard height and age were placed on a revolving turntable and sprayed with 100-110 milliliter of test compound formulation by use of a DeVilbiss spray gun set at 10 psig air pressure. […] Percent mortality was recorded for various concentration levels. […]

Series [4] deals with Mexican bean beetle (Epilachna variestis, Muls.). The series can be described thus: Mexican Bean Beetle Leaf Spray Test. Conditions: 72 h, read-out: LD50 MBB. On the procedure: as §1
Fourth instar larvae of the Mexican bean beetle (Epilachna variestis, Muls.), reared on Tendergreen bean plants at a temperature of 80°±5° F. and 50±5 percent relative humidity, were the test insects.
The test compounds were formulated by diluting the stock suspension with water to give a suspension containing 500 parts of test compound per million parts of final formulation. Tendergreen bean plants of standard height and age were placed on a revolving turntable and sprayed with 100-110 milliliters of test compound formulation by use of a DeVilbiss spray gun set at 10 psig air pressure. This application, which lasted 25 seconds, was sufficient to wet plants to run-off. […]

The subject of series [5] is house flies (Musca domestica, L.). The experiment in a line: Fly Bait Test. Conditions: po, 24 h, adult flies, bait in 10 percent sugar solution, twenty four hours, read-out: LD50 HF. The protocol: as §1
Four to six day old adult house flies (Musca domestica, L.), reared according to the specifications of the Chemical Specialities Manufacturing Association (Blue Book, McNair-Dorland Co., N.Y. 1954; pages 243-244, 261) under controlled conditions of 80± F. and 50±5 percent relative humidity, were the test insects. The flies were immobilized by anesthetizing with carbon dioxide and twenty five immobilized individuals,males and females, were transferred to a cage consisting of a standard food strainer about five inches in diameter which was inverted over a wrapping-paper-covered surface. […]

The test system of the next series is Corn. The series can be described thus: Phytotoxicity, corn. Details: key: 1 = No plant injury at a dose of 2500 ppm. As to conditions: rating; dose of 2500 ppm.
In a further series the test system is Cott. The experiment in a line: Phytotoxicity, cotton. Details: key: 1 = No plant injury at a dose of 2500 ppm. Conditions: rating; dose of 2500 ppm.
A further series relates to Soybean. The experiment in a line: Phytotoxicity, soybean. Conditions: rating; dose of 2500 ppm. Details: key: 1 = No plant injury at a dose of 2500 ppm.

With `C#CC(OC(=O)C(c1cc2ccccc2o1)C(C)C)c1cccc(Oc2ccccc2)c1` (stereo not shown), the LC50 in series [1] was 0.8 µg/mL (≈ 1.88 µM); in series [2], 200 µg/mL (≈ 471 µM); in series [3], 52 µg/mL (≈ 122 µM); in series [4], 5 µg/mL (≈ 11.8 µM); in series [5], ~180 µg/mL (≈ 424 µM). For the same compound, the “Phytotoxicity Corn” value with Corn is recorded as 1. In addition, in the series with Cott., the “Phytotoxicity Cott.” value is listed as 1. In addition, in the series with Soybean, the “Phytotoxicity Soybean” value is 1.
`CC(C)C(C(=O)OC(C#N)c1cccc(Oc2ccccc2)c1)c1cc2ccccc2o1` (stereo not shown): the LC50 is ~0.7 µg/mL (≈ 1.65 µM) in series [1]; 210 µg/mL (≈ 494 µM) in series [2]; ~45 µg/mL (≈ 106 µM) in series [3]; 11 µg/mL (≈ 25.9 µM) in series [4]; 23 µg/mL (≈ 54.1 µM) in series [5]. In the series on Corn, the “Phytotoxicity Corn” value came to 1. Besides, the “Phytotoxicity Cott.” value with Cott. is 1. In the series with Soybean, the “Phytotoxicity Soybean” value turned out to be 1.
